In US20260070887A1 (Shenzhen Zhongge Biological Technology Co., Ltd., priority 2022, published 2026):
Where two headings read alike, the source gives them in different places.

Columns and labels:
KIF18A = KIF18A (Homo sapiens (Human), UniProt Q8NI77); assay: KIF18A ATPase activity under tubulin stimulation (ADP-Glo assay); format: biochemical; conditions: KIF18A 30 nM, ATP 150 μM, pig microtubules
Method: This experiment assesses the inhibitory effect of the compounds of the present disclosure on the KIF18A target according to the IC50 values by measuring the KIF18A ATPase activity under tubulin stimulation with the presence of the compounds.
• 1. Preparation of 30 mL of reaction buffer: • (1) 450 μL 1M Tris-HCl (pH=7.5)+300 μL 1M MgCl2+30 μL 10% Pluronic F-68 (ThermoFisher, 24040032-100 ml); • (2) adjusting pH to 7.5, and adding water to adjust the volume to 30 mL. • 2. Preparation of a 5 mg/mL pig microtubule (Microtubules; MT) (Cytoskeleton Inc, MT002) stock solution: • (1) 10 mL PM buffer=150 μL 1 M PIPES (pH 7.0)+20 μL 0.5 mM MgCl2+100 μL 2 mM Taxol (Cytoskeleton Inc, TXD01)+9730 μL water. • (2) MT ([…]): Adding 100 μL PM buffer to prepare a 5 mg/mL stock solution. Keeping the MT (Cytoskeleton Inc, MT002) at room temperature for 10-15 minutes, gently mixing and storing same at −80° C. • 3. Preparation of 2 mL of kinase buffer: 2 mL reaction buffer+1 μL 2 mM Taxol (Cytoskeleton Inc, TXD01)+12 μL 5 mg/mL MT (Cytoskeleton Inc, MT002). • 4. Preparation of 2×KIF18A (30 nM) (ChemPartner, CPB-P22-31645) working solution: 2.4 μL 10 μM KIF18A (ChemPartner, CPB-P22-31645)+800 μL 1× kinase buffer. • 5. Preparation of 2×ATP (150 μM) (Promega, G9101) working solution: 12 μL 10 mM ATP+800 μL 1× kinase buffer. • 6. 25 nL of compound was transferred to a 384-well plate using Echo650. • 7. 2.5 μL of 2×KIF18A from Step 4 (final concentration of 30 nM) was added to the 384-well plate and the plate was incubated at 25° C. for 15 minutes. • 8. 2.5 μL of 2×ATP from Step 5 (final concentration of 150 μM) was added to the 384-well plate and the plate was incubated at 25° C. for 15 minutes. • 9. 5 μL ADP-Glo™ Reagent (Promega, G9101) was added to the 384-well plate and the plate was incubated at 25° C. for 40 minutes. • 10. 10 μL of kinase detection reagent (Promega, G9101) was added to the 384-well plate and the plate was incubated at 25° C. for 40 minutes. • 11. Luminescence values were measured using the EnVision Xcite Multilabel Reader (PerkinElmer, 2105-0020).

OVCAR-3 cells = assay: OVCAR-3 cell proliferation (Cell Titer-Glo, 10 days); format: cell-based, human
Method: The inhibitory effect on the KIF18A target by the compounds of the present disclosure was evaluated by testing the inhibitory effect on proliferation of OVCAR-3 cells by the compounds of the present disclosure.
The following method was used to determine the effect of the compounds of the present disclosure on the proliferation of human ovarian cancer cells Ovcar-3 (HTB-161, ATCC). Cells were cultured in RPMI-1640 complete medium containing 20% fetal bovine serum, 0.01 mg/mL bovine insulin, 100 U penicillin, and 100 μg/mL streptomycin. The Promega kit Cell Titer-Glo (Cat. No. G7572) was used in this method for test.
For specific steps, reference was made to the kit instructions, and the procedure was outlined below: Test compounds were dissolved in DMSO to prepare a 10 mM stock solution, which was diluted at the predetermined test concentrations, and the test compounds at different concentrations were added to a 384-well cell test plate using ECHO. In the plate pre-added with the test compounds, 400 OVCAR-3 cells in the logarithmic growth phase were seeded per well, ensuring the final concentration of the test compounds in the reaction system ranged between 0.12 nM and 10 μM. The co-culture was maintained in a cell culture incubator for 10 days. Before testing, the cell culture plate was equilibrated for 10 minutes at room temperature, 25 μL of Cell Titer-Glo was added to each well, and the mixture was shaken and mixed well and let stand for 5 minutes. The luminescence values for samples in various wells were read using a microplate reader in Luminescence mode.
The percentage of inhibition of cell proliferation by the test compound at each concentration was calculated by comparing with the values of the control group (0.1% DMSO). The IC50 values of the compounds were obtained by concentration-inhibition rate nonlinear regression analysis of the test compounds using GraphPad Prism 9.

Chain of KIF18A (Q8NI77 whole entry): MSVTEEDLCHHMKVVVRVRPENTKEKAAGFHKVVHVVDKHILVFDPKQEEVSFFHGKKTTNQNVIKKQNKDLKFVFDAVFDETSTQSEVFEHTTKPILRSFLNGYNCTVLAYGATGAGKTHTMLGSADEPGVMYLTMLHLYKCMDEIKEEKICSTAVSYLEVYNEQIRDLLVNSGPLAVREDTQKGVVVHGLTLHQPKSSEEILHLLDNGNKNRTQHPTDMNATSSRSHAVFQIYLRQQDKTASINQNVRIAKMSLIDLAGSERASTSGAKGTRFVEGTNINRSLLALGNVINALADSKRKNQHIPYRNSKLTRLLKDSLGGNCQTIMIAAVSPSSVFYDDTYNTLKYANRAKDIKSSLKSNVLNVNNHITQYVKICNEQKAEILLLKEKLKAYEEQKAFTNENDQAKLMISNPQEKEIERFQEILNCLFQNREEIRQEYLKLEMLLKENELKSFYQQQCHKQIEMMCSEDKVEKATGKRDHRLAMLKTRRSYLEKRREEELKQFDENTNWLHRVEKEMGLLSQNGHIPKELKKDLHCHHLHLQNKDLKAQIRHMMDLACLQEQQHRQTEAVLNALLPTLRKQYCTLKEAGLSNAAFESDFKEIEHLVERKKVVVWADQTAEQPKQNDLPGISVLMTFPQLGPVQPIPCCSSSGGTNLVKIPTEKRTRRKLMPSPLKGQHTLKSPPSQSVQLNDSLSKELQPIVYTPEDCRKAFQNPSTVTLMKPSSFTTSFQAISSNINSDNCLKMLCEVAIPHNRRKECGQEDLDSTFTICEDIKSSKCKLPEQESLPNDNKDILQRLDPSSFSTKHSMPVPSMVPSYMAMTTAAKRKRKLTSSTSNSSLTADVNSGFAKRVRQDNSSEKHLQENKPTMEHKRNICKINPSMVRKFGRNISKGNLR
Chain of KIF18A (P02550 whole entry partner): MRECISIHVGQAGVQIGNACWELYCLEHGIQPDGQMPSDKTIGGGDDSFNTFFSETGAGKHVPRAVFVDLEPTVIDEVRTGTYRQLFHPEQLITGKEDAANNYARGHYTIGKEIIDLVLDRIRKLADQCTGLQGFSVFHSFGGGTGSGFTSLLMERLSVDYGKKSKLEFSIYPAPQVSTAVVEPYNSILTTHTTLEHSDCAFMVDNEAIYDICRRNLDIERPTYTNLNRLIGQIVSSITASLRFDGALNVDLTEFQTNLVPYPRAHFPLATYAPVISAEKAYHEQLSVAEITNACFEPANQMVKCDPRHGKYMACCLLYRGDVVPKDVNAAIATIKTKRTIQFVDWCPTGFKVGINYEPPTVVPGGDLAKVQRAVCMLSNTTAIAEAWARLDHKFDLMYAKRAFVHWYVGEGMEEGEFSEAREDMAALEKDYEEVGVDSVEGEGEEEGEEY
Chain of KIF18A (P02554 whole entry partner): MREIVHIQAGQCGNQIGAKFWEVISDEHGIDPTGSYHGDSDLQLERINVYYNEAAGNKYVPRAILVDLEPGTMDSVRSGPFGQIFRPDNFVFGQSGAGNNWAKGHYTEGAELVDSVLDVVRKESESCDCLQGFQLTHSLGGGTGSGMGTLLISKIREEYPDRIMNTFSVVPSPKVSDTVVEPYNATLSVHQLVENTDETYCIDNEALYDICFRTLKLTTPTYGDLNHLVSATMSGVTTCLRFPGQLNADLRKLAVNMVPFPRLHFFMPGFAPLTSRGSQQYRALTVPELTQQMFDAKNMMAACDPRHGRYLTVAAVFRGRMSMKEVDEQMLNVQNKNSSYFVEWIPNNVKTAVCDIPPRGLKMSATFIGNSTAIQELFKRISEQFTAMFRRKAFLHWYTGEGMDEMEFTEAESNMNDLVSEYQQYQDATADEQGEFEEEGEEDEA

Cc1ccc(NC(=O)c2ccc(NS(=O)(=O)CCO)cc2N2CCC3(CC2)CC3)c2cc3n(c12)CC(C)(C)OC3 [Example 525]
IC50 (KIF18A): 0.05 to 0.5 µM
IC50 (OVCAR-3 cells): ≤ 0.05 µM

O=C(Nc1cc(F)cc2c1cc1n2CCOC1)c1ccc(NS(=O)(=O)CCO)cc1N1CCC2(CC1)CC2 [Example 366, N-(7-fluoro-3,4-dihydro-1H-[1,4]oxazino[4,3-a]indol-9-yl)-4-((2-hydroxyethyl)sulfonamido)-2-(6-azaspiro[2.5]oct-6-yl)benzamide]
IC50 (KIF18A): ≤ 0.05 µM
IC50 (OVCAR-3 cells; Homo sapiens, OVCAR-3, 240 h): ≤ 0.05 µM

O=C(Nc1cccc2c1cc1n2CCC(F)(F)C1O)c1ccc(NS(=O)(=O)CCO)cc1N1CCC(=C(F)F)CC1 (centres unmarked) [Compound 383, N-(8,8-difluoro-9-hydroxy-6,7,8,9-tetrahydropyridino[1,2-a]indol-1-yl)-2-(4-(difluoromethylene)piperidin-1-yl)-4-((2-hydroxyethyl)sulfonamido)benzamide]
IC50 (KIF18A): ≤ 0.05 µM
IC50 (OVCAR-3 cells; Homo sapiens, OVCAR-3, 240 h): ≤ 0.05 µM

CC1Cn2c(nc3c(NC(=O)c4ccc(NS(=O)(=O)CCO)cc4N4CCC5(CC4)CC5)cccc32)C(C)O1 (centres unmarked) [Example 444, 2-(6-azaspiro[2.5]oct-6-yl)-N-(1,3-dimethyl-3,4-dihydro-1H-benzo[4,5]imidazo[2,1-c][1,4]oxazin-9-yl)-4-{[(2-hydroxyethyl)sulfonamide]}benzamide]
IC50 (KIF18A): ≤ 0.05 µM
IC50 (OVCAR-3 cells): ≤ 0.05 µM

CC1OCCn2c1cc1c(NC(=O)c3ccc(NS(=O)(=O)CCO)cc3N3CCC4(CC3)CC4)cccc12 (centres unmarked) [Compound 311-P2, 4-((2-hydroxyethyl)sulfonamido)-N-(1-methyl-3,4-dihydro-1H-[1,4]oxazinyl[4,3-a]indol-9-yl)-2-(6-azaspiro[2.5]oct-6-yl)benzamide]
IC50 (KIF18A): ≤ 0.05 µM
IC50 (OVCAR-3 cells): ≤ 0.05 µM

CC1(C)Cn2c(cc3c(NC(=O)c4ccc(NS(=O)(=O)CCO)cc4N4CCC5(CC4)CC5)ccc(F)c32)CO1 [Example 519, N-(6-fluoro-3,3-dimethyl-3,4-dihydro-1H-[1,4]oxazinyl[4,3-a]indol-9-yl)-4-((2-hydroxyethyl)sulfanilamido)-2-(6-azaspiro[2.5]oct-6-yl)benzamide]
IC50 (KIF18A): 0.05 to 0.5 µM
IC50 (OVCAR-3 cells): 0.05 to 0.5 µM

O=C(Nc1cccc2c1cc1n2CC(F)(F)CC1)c1ccc(NS(=O)(=O)CCO)cc1N1CCC2(CC1)CC2 [Example 341, N-(7,7-difluoro-6,7,8,9-tetrahydropyridino[1,2-a]indol-1-yl)-4-((2-hydroxyethyl)sulfonamido)-2-(6-azaspiro[2.5]oct-6-yl)benzamide]
IC50 (KIF18A): 0.05 to 0.5 µM
IC50 (OVCAR-3 cells; Homo sapiens, OVCAR-3, 240 h): 0.05 to 0.5 µM

COc1ccc(NC(=O)c2ccc(NS(=O)(=O)CCO)cc2N2CCC3(CC2)CC3)c2nc3n(c12)CC(C)(C)OC3 [Example 488]
IC50 (KIF18A): 0.05 to 0.5 µM
IC50 (OVCAR-3 cells): ≤ 0.05 µM

CC1(C)Cn2c(cc3c(NC(=O)c4ccc(NS(=O)(=O)CCO)cc4N4CCC(=C(F)F)CC4)ccc(Cl)c32)CO1 [Example 522, N-(6-chloro-3,3-dimethyl-3,4-dihydro-1H-[1,4]oxazino[4,3-a]indol-9-yl)-2-[4-(difluoromethylene)hexahydropyridin-1-yl]-4-{[(2-hydroxyethyl)sulfonamide]}benzamide]
IC50 (OVCAR-3 cells; Homo sapiens, OVCAR-3, 240 h): 0.05 to 0.5 µM

COC1c2cc3c(NC(=O)c4ccc(NS(=O)(=O)CCO)cc4N4CCC(=C(F)F)CC4)ccc(C#N)c3n2CCC1(F)F (centres unmarked) [Compound 427, N-(4-cyano-8,8-difluoro-9-methoxy-6,7,8,9-tetrahydropyridino[1,2-a]indol-1-yl)-2-(4-(difluoromethylene)piperidin-1-yl)-4-((2-hydroxyethyl)sulfonamide)benzamide]
IC50 (OVCAR-3 cells; Homo sapiens, OVCAR-3, 240 h): 0.05 to 0.5 µM

O=C(Nc1cccc2c1ccn2CC1(C(F)(F)F)CC1)c1ccc(NS(=O)(=O)CCO)cc1N1CCC2(CC1)CC2 [Example 284]
IC50 (KIF18A): 0.5 to 5 µM

O=C(Nc1cccc(N2CCC(F)(F)CC2)c1)Nc1ccc(NS(=O)(=O)CCO)cc1N1CCC2(CC1)CC2 [Example 147, N-(4-(3-(3-(4,4-difluoropiperidin-1-yl)phenyl)urea)-3-(6-azaspiro[2.5]octan-6-yl)phenyl)-2-hydroxyethane-1-sulfonamide]
IC50 (KIF18A): 0.5 to 5 µM

Cn1ccc2c(NC(=O)c3ccc(NS(=O)(=O)CCO)cc3N3CCC4(CC3)CC4)cccc21 [Example 10, 4-((2-hydroxyethyl)sulfonamido)-N-(1-methyl-1H-indol-4-yl)-2-(6-azaspiro[2.5]octan-6-yl)benzamide]
IC50 (KIF18A): 0.05 to 0.5 µM

COC1c2cc3c(NC(=O)c4ccc(NS(=O)(=O)CCO)cc4N4CCC5(CC4)CC5)cccc3n2CCC1(F)F (single isomer, unassigned) [Compound 385-P1, N-(8,8-difluoro-9-(methoxy-d3)-6,7,8,9-tetrahydropyridino[1,2-a]indol-1-yl)-4-((2-hydroxyethyl)sulfonamido)-2-(6-azaspiro[2.5]oct-6-yl)benzamide]
IC50 (KIF18A): 0.05 to 0.5 µM

CC1(C)Cn2c(cc3c(NC(=O)c4cnc(NS(=O)(=O)CCO)cc4N4CCC5(CC4)CC5)cccc32)CO1 [Example 454, N-(3,3-dimethyl-3,4-dihydro-1H-[1,4]oxazino[4,3-a]indol-9-yl)-6-(2-hydroxyethylsulfonamide)-4-(6-azaspiro[2.5]octan-6-yl)nicotinamide]
IC50 (OVCAR-3 cells; Homo sapiens, OVCAR-3, 240 h): 0.05 to 0.5 µM

O=C(Nc1ccnc(N2CCC(F)(F)CC2)c1)c1ccc(NS(=O)(=O)CCO)cc1OC1CCCCC1 [Example 22]
IC50 (KIF18A): 0.05 to 0.5 µM

O=C(Nc1cccc2c1CCN2CC1CCCC1)c1ccc(NS(=O)(=O)CCO)cc1N1CCC2(CC1)CC2 [Example 15, N-(1-(cyclopentylmethyl)dihydroindol-4-yl)-4-((2-hydroxyethyl)sulfonamido)-2-(6-azaspiro[2.5]oct-6-yl)benzamide]
IC50 (KIF18A): 0.5 to 5 µM

[2H]C([2H])([2H])OC1c2cc3c(NC(=O)c4ccc(NS(=O)(=O)CCO)cc4N4CCC5(CC4)CC5)cccc3n2CCC1(F)F (single isomer, unassigned) [Compound 385-P1, N-(8,8-difluoro-9-(methoxy-d3)-6,7,8,9-tetrahydropyridino[1,2-a]indol-1-yl)-4-((2-hydroxyethyl)sulfonamido)-2-(6-azaspiro[2.5]oct-6-yl)benzamide]
IC50 (OVCAR-3 cells; Homo sapiens, OVCAR-3, 240 h): 0.05 to 0.5 µM

CN1CCCCc2c(NC(=O)c3ccc(NS(=O)(=O)CCO)cc3N3CCC4(CC3)CC4)cccc21 [Example 11, 4-((2-hydroxyethyl)sulfonamido)-N-(1-methyl-2,3,4,5-tetrahydro-1H-benzo[b]azepin-6-yl)-2-(6-azaspiro[2.5]octan-6-yl)benzamide]
IC50 (KIF18A): 0.5 to 5 µM

O=C(Nc1cccc2c1CCN2CC1CC1)c1ccc(NS(=O)(=O)CCO)cc1OC1CCCCC1 [Example 27, 2-(cyclohexyloxy)-N-(1-(cyclopropylmethyl)indolin-4-yl)-4-((2-hydroxyethyl)sulfonamide)benzamide]
IC50 (KIF18A): 0.5 to 5 µM

O=C(Nc1cccc2c1C1(CC1)C(=O)N2CC1CC1)c1ccc(NS(=O)(=O)CCO)cc1N1CCC2(CC1)CC2 [Example 17, N-(1′-(cyclopropylmethyl)-2′-oxospiro[cyclopropane-1,3′-indolin]-4′-yl)-4-((2-hydroxyethyl)sulfonamido)-2-(6-azaspiro[2.5]octan-6-yl)benzamide]
IC50 (KIF18A): > 5 µM
